Measured values taken from patent US10472352B2, “Rac inhibitors” (Geneyus LLC, priority 2017, dated 2019).
Where two headings read alike, the source gives them in different places.

Tested on: BT474 breast cancer cells
Assay: BT474 Four (4) Day Cell Viability Assay
Format: cell-based
Conditions: Homo sapiens, BT-474, 96 h, BT474, 4 days, read-out: cellular viability; for viability at 7.5 µM: 32661 7.5 μM; for viability at 10 µM: 32661 10 μM
Protocol: BT474 breast cancer cells that are Estrogen Receptor Positive and HER2+ were grown in 5% cFBS. 5,000 cells were seeded into each well of a 96-well plate and treated with escalating doses of lapatinib, fulvestrant, and 32661.

[1] = fulvestrant 0.0 nM, lapatinib 0.0 nM
[2] = fulvestrant 0.0 nM, lapatinib 6.9 nM
[3] = fulvestrant 0.0 nM, lapatinib 20.6 nM
[4] = fulvestrant 0.0 nM, lapatinib 61.7 nM
[5] = fulvestrant 0.0 nM, lapatinib 185.2 nM
[6] = fulvestrant 0.0 nM, lapatinib 555.6 nM
[7] = fulvestrant 0.0 nM, lapatinib 1666.7 nM
[8] = fulvestrant 0.0 nM, lapatinib 3333.0 nM
[9] = fulvestrant 6.9 nM, lapatinib 0.0 nM
[10] = fulvestrant 6.9 nM, lapatinib 6.9 nM
[11] = fulvestrant 6.9 nM, lapatinib 20.6 nM
[12] = fulvestrant 6.9 nM, lapatinib 61.7 nM
[13] = fulvestrant 6.9 nM, lapatinib 185.2 nM
[14] = fulvestrant 6.9 nM, lapatinib 555.6 nM
[15] = fulvestrant 6.9 nM, lapatinib 1666.7 nM
[16] = fulvestrant 6.9 nM, lapatinib 3333.0 nM
[17] = fulvestrant 20.6 nM, lapatinib 0.0 nM
[18] = fulvestrant 20.6 nM, lapatinib 6.9 nM
[19] = fulvestrant 20.6 nM, lapatinib 20.6 nM
[20] = fulvestrant 20.6 nM, lapatinib 61.7 nM
[21] = fulvestrant 20.6 nM, lapatinib 185.2 nM
[22] = fulvestrant 20.6 nM, lapatinib 555.6 nM
[23] = fulvestrant 20.6 nM, lapatinib 1666.7 nM
[24] = fulvestrant 20.6 nM, lapatinib 3333.0 nM
[25] = fulvestrant 61.7 nM, lapatinib 0.0 nM
[26] = fulvestrant 61.7 nM, lapatinib 6.9 nM
[27] = fulvestrant 61.7 nM, lapatinib 20.6 nM
[28] = fulvestrant 61.7 nM, lapatinib 61.7 nM
[29] = fulvestrant 61.7 nM, lapatinib 185.2 nM
[30] = fulvestrant 61.7 nM, lapatinib 555.6 nM
[31] = fulvestrant 61.7 nM, lapatinib 1666.7 nM
[32] = fulvestrant 61.7 nM, lapatinib 3333.0 nM
[33] = fulvestrant 185.2 nM, lapatinib 0.0 nM
[34] = fulvestrant 185.2 nM, lapatinib 6.9 nM
[35] = fulvestrant 185.2 nM, lapatinib 20.6 nM
[36] = fulvestrant 185.2 nM, lapatinib 61.7 nM
[37] = fulvestrant 185.2 nM, lapatinib 185.2 nM
[38] = fulvestrant 185.2 nM, lapatinib 555.6 nM
[39] = fulvestrant 185.2 nM, lapatinib 1666.7 nM
[40] = fulvestrant 185.2 nM, lapatinib 3333.0 nM
[41] = fulvestrant 555.6 nM, lapatinib 0.0 nM
[42] = fulvestrant 555.6 nM, lapatinib 6.9 nM
[43] = fulvestrant 555.6 nM, lapatinib 20.6 nM
[44] = fulvestrant 555.6 nM, lapatinib 61.7 nM
[45] = fulvestrant 555.6 nM, lapatinib 185.2 nM
[46] = fulvestrant 555.6 nM, lapatinib 555.6 nM
[47] = fulvestrant 555.6 nM, lapatinib 1666.7 nM
[48] = fulvestrant 555.6 nM, lapatinib 3333.0 nM
[49] = fulvestrant 1666.7 nM, lapatinib 0.0 nM
[50] = fulvestrant 1666.7 nM, lapatinib 6.9 nM
[51] = fulvestrant 1666.7 nM, lapatinib 20.6 nM
[52] = fulvestrant 1666.7 nM, lapatinib 61.7 nM
[53] = fulvestrant 1666.7 nM, lapatinib 185.2 nM
[54] = fulvestrant 1666.7 nM, lapatinib 555.6 nM
[55] = fulvestrant 1666.7 nM, lapatinib 1666.7 nM
[56] = fulvestrant 1666.7 nM, lapatinib 3333.0 nM
[57] = fulvestrant 3333.0 nM, lapatinib 0.0 nM
[58] = fulvestrant 3333.0 nM, lapatinib 6.9 nM
[59] = fulvestrant 3333.0 nM, lapatinib 20.6 nM
[60] = fulvestrant 3333.0 nM, lapatinib 61.7 nM
[61] = fulvestrant 3333.0 nM, lapatinib 185.2 nM
[62] = fulvestrant 3333.0 nM, lapatinib 555.6 nM
[63] = fulvestrant 3333.0 nM, lapatinib 1666.7 nM
[64] = fulvestrant 3333.0 nM, lapatinib 3333.0 nM

FC(F)(F)c1ccc2c(SCCCCCCn3cnc(CN4CCOCC4)c3)ccnc2c1 [Compound 0032661, 4-[[1-[6-[[7-(trifluoromethyl)-4-quinolyl]sulfanyl]hexyl]imidazol-4-yl]methyl]morpholine]
viability at 5 µM (32661 5 μM, fulvestrant 3333.0 nM, lapatinib 3333.0 nM): 1%
viability at 7.5 µM [1]: 84%
viability at 7.5 µM [2]: 76%
viability at 7.5 µM [3]: 74%
viability at 7.5 µM [4]: 65%
viability at 7.5 µM [5]: 50%
viability at 7.5 µM [6]: 30%
viability at 7.5 µM [7]: 14%
viability at 7.5 µM [8]: 12%
viability at 7.5 µM [9]: 81%
viability at 7.5 µM [10]: 72%
viability at 7.5 µM [11]: 71%
viability at 7.5 µM [12]: 64%
viability at 7.5 µM [13]: 52%
viability at 7.5 µM [14]: 27%
viability at 7.5 µM [15]: 12%
viability at 7.5 µM [16]: 9%
viability at 7.5 µM [17]: 75%
viability at 7.5 µM [18]: 73%
viability at 7.5 µM [19]: 67%
viability at 7.5 µM [20]: 62%
viability at 7.5 µM [21]: 50%
viability at 7.5 µM [22]: 23%
viability at 7.5 µM [23]: 12%
viability at 7.5 µM [24]: 4%
viability at 7.5 µM [25]: 76%
viability at 7.5 µM [26]: 66%
viability at 7.5 µM [27]: 61%
viability at 7.5 µM [28]: 58%
viability at 7.5 µM [29]: 52%
viability at 7.5 µM [30]: 24%
viability at 7.5 µM [31]: 12%
viability at 7.5 µM [32]: 4%
viability at 7.5 µM [33]: 74%
viability at 7.5 µM [34]: 64%
viability at 7.5 µM [35]: 61%
viability at 7.5 µM [36]: 54%
viability at 7.5 µM [37]: 48%
viability at 7.5 µM [38]: 24%
viability at 7.5 µM [39]: 10%
viability at 7.5 µM [40]: 5%
viability at 7.5 µM [41]: 76%
viability at 7.5 µM [42]: 59%
viability at 7.5 µM [43]: 52%
viability at 7.5 µM [44]: 45%
viability at 7.5 µM [45]: 38%
viability at 7.5 µM [46]: 19%
viability at 7.5 µM [47]: 3%
viability at 7.5 µM [48]: 1%
viability at 7.5 µM [49]: 69%
viability at 7.5 µM [50]: 35%
viability at 7.5 µM [51]: 28%
viability at 7.5 µM [52]: 25%
viability at 7.5 µM [53]: 21%
viability at 7.5 µM [54]: 12%
viability at 7.5 µM [55]: 2%
viability at 7.5 µM [56]: 0%
viability at 7.5 µM [57]: 49%
viability at 7.5 µM [58]: 16%
viability at 7.5 µM [59]: 13%
viability at 7.5 µM [60]: 11%
viability at 7.5 µM [61]: 7%
viability at 7.5 µM [62]: 2%
viability at 7.5 µM [63]: 3%
viability at 7.5 µM [64]: 1%
viability at 10 µM [1]: 90%
viability at 10 µM [2]: 42%
viability at 10 µM [3]: 38%
viability at 10 µM [4]: 35%
viability at 10 µM [5]: 28%
viability at 10 µM [6]: 28%
viability at 10 µM [7]: 23%
viability at 10 µM [8]: 5%
viability at 10 µM [9]: 90%
viability at 10 µM [10]: 38%
viability at 10 µM [11]: 35%
viability at 10 µM [12]: 33%
viability at 10 µM [13]: 27%
viability at 10 µM [14]: 24%
viability at 10 µM [15]: 20%
viability at 10 µM [16]: 3%
viability at 10 µM [17]: 89%
viability at 10 µM [18]: 36%
viability at 10 µM [19]: 36%
viability at 10 µM [20]: 33%
viability at 10 µM [21]: 28%
viability at 10 µM [22]: 23%
viability at 10 µM [23]: 20%
viability at 10 µM [24]: 3%
viability at 10 µM [25]: 86%
viability at 10 µM [26]: 37%
viability at 10 µM [27]: 35%
viability at 10 µM [28]: 33%
viability at 10 µM [29]: 27%
viability at 10 µM [30]: 23%
viability at 10 µM [31]: 20%
viability at 10 µM [32]: 2%
viability at 10 µM [33]: 86%
viability at 10 µM [34]: 33%
viability at 10 µM [35]: 33%
viability at 10 µM [36]: 31%
viability at 10 µM [37]: 24%
viability at 10 µM [38]: 23%
viability at 10 µM [39]: 18%
viability at 10 µM [40]: 1%
viability at 10 µM [41]: 81%
viability at 10 µM [42]: 31%
viability at 10 µM [43]: 29%
viability at 10 µM [44]: 29%
viability at 10 µM [45]: 24%
viability at 10 µM [46]: 23%
viability at 10 µM [47]: 18%
viability at 10 µM [48]: 1%
viability at 10 µM [49]: 78%
viability at 10 µM [50]: 16%
viability at 10 µM [51]: 16%
viability at 10 µM [52]: 15%
viability at 10 µM [53]: 16%
viability at 10 µM [54]: 15%
viability at 10 µM [55]: 7%
viability at 10 µM [56]: 0%
viability at 10 µM [57]: 55%
viability at 10 µM [58]: 3%
viability at 10 µM [59]: 3%
viability at 10 µM [60]: 6%
viability at 10 µM [61]: 2%
viability at 10 µM [62]: 2%
viability at 10 µM [63]: 1%
viability at 10 µM [64]: 0%
